Like-named read-outs stand apart in the source and are kept apart here.
Legend:
[1] = rat, in vivo
[2] = rat, in vivo; cited from earlier work
visceral hyperalgesia = conditions: animal models of IBS; cited from earlier work
[3] = dog, in vivo
[4] = rat, in vivo; cited from earlier work; remark: listed apart in the source
[5] = in vivo
[6] = human, in vivo

- Maximum bioavailability [1]: ≤ 20%
- Maximum bioavailability [3]: ≤ 2%
- Maximum bioavailability [5]: ≤ 2%
- oral bioavailability [6]: 1%
Substance: cyclo ( [Asn(β--D-2-deoxy-2-acetamido-Glc)-Asp-Trp-Phe-Dap-Leu]cyclo(2β--5β-)) [nepadutant]
- absoption [2]: > 80%
- visceral hyperalgesia (visceral hyperalgesia): corrects visceral hyperalgesia
- oral bioavailability [4]: 1%
